Assays:
[1] = Reaction of Compound A powder with formaldehyde vapour, related substances by HPLC (Experiment 2); format: physicochemical; settings: 50° C. for 14 days
Protocol: When Compound A powder (2 mg) was stored in a sealed stoppered glass test tube together with a cup containing an aqueous formaldehdye solution (1 ml) in various concentrations (see FIG. 2), and stored at 50° C. for 14 days, the generated amount of related substances of Compound A was measured. The generated amount of the related substances was measured by dissolving Compound A powder (2 mg) in methanol (200 ml) to give a test solution, and applying 10 μl thereof to high performance liquid chromatograph under the following conditions. The percentage ratio of the peak area of the related substances to the total peak area including that of Compound A was regarded as the generation amount thereof.
Conditions for High Performance Liquid Chromatograph:
Column: Develosil ODS-5 (inner diameter: 4.6 mm×150 mm, manufactured by NOMURA CHEMICAL CO., LTD.)
Mobile phase: Mixture of 0.01M citric acid buffer (pH 2.5):acetonitrile (75:25)
Detector: Ultraviolet-visible spectrophotometer (wave length for detection: 220 nm)
Temperature: Constant temperature around 40° C.

[2] = Absorption of aldehyde by stabilizer (Experiment 4); format: physicochemical; settings: for Residual rate of formaldehyde in the cup: 25° C. for 2 days, 1 g meglumine powder enclosed
Protocol: Meglumine powder (1 g) was stored in a sealed stoppered glass test tube together with a cup containing an aqueous formaldehyde solution (2 ml) (containing potassium iodide for adjusting moisture) in various concentrations (see FIG. 4). For a comparative control, a cup containing an aqueous formaldehyde solution (2 ml) (containing potassium iodide for adjusting moisture) in various concentrations was put into a sealed stoppered glass test tube without meglumine. The test tubes were stored at 25° C. or 40° C. for 2 days, and the residual amount of formaldehyde in the cup was measured in a similar manner to Experiment 1.

Residual ratio of formaldehyde in the cup compared to without meglumine (in words) ([2]; after storage) | Residual rate of formaldehyde in the cup ([2]; formaldehyde 0.1 μg/ml) | Residual rate of formaldehyde in the cup ([2]; formaldehyde 0.5 μg/ml) | Residual rate of formaldehyde in the cup ([2]; formaldehyde 1 μg/ml) | SMILES | Generated amount of related substances ([1]; aldehyde concentration in the cup: Not detected) | Generated amount of related substances ([1]; aqueous formaldehyde in the cup 0.0625 μg/ml) | Generated amount of related substances ([1]; aqueous formaldehyde in the cup 0.125 μg/ml) | Generated amount of related substances ([1]; aqueous formaldehyde in the cup 0.25 μg/ml) | Generated amount of related substances ([1]; aqueous formaldehyde in the cup 0.5 μg/ml) | Generated amount of related substances ([1]; aqueous formaldehyde in the cup 1.0 μg/ml)
 |  |  |  | C[C@H](Cc1c[nH]c2c(OCC(=O)O)cccc12)NC[C@H](O)c1cccc(Cl)c1 [Compound A, [3-[(2R)-[[(2R)-(3-chlorophenyl)-2-hydroxyethyl]amino]propyl]-1H-indol-7-yleoxy]acetic acid] | Not detected | Not detected | 0.031% | 0.063% | 0.091% | 0.136%
apparently lowered | 85.1% | 75.5% | 70.7% | CNC[C@H](O)[C@@H](O)[C@H](O)[C@H](O)CO [meglumine] |  |  |  |  |  | 
